Like-named read-outs stand apart in the source and are kept apart here.
Key:
[1] = test system: cerivastatin-induced APPΔC31 production in CHO-7W cells; assay: APPΔC31 ELISA validation assay, cerivastatin-induced; type: cell-based, Chinese hamster; settings: 24 h; for APPΔC31 Inh. (mean %): CHO-7W cells, test concentration not given; for IC50: Cricetulus griseus, (E) ELISA, cerivastatin-induced, read-out: IC50 (E), APPΔC31 inhibition
Description: The APPΔC31 ELISA developed in partnership with Enzo Life Sciences (ADI-900-227) follows a standard sandwich ELISA design wherein a monoclonal N-terminal APP-specific antibody is used to coat the wells of the microtiter plate (capture antibody) and the anti-APPΔC31 cleavage site-specific polyclonal antibody serves as the detection antibody. An HRP-conjugated secondary antibody is then added and a colorimetric signal generated by enzymatic conversion of the tetramethylbenzidine (TMB) substrate. Protein levels were first determined using a colorimetric coomassie assay (Coomassie Plus, Thermo).
A subset of hits from our HTS was validated in a secondary assay. […] Thapsigargin also acts as a sarco/endoplasmic reticulum calcium ATPase (SERCA) inhibitor. Therefore, another SERCA inhibitor, 2,5-Di-tert-butylhydroquinone, was also added to the testing. In this secondary assay, CHO-7W cells were cultured as described above and plated into 24-well dishes at ∼200K/well. […] These hits were selected for their potency in primary screen, their structural features, their known activities, and availability of compound for additional testing. There were cerivastatin-only (negative control), + QVD-OPh (positive control), and for viability, vehicle-only (negative) controls. Cells were harvested by removing the media to a tube, adding […] trypsin to detach cells then neutralizing with media. […] Cells were centrifuged at 5000 rpm (2300 × g) for 5 min. Cell pellets were frozen until use. Forty μL cold RIPA buffer plus complete protease inhibitors (Roche) was added to each pellet and the pellets were reconstituted by pipetting up and down, incubating on ice for 30 min, vortexing, and centrifugation as above. Cell lysate supernatants were then assayed by APPΔC31 ELISA as described above. For most compounds, multiple/repeat studies were performed and two wells used for each condition. Statistical comparison was performed using one-way ANOVA for multiple comparisons, with a Dunnett post hoc test to compare each condition to the control. Further dose-response studies were performed on select compounds.

[2] = test system: cerivastatin-induced APPΔC31 in CHO-7W cells; assay: APPΔC31 AlphaLISA dose-response, cerivastatin-induced; type: cell-based, Chinese hamster; settings: 24 h; for inhibition of cerivastatin-induced APPΔC31 (in words): dose-response curves
Description: The APPΔC31 AlphaLISA assay (Figures 2C–E) was run directly in the plate with the cell lysate as described above in “AlphaLISA to detect APPΔC31.” APPΔC31 levels were measured using the Envision plate reader and data were normalized to DMSO (100% APPΔC31 production) and Q-VD-OPh (MP Biomedicals) pan-caspase inhibitor at 30 μM (0%); these controls were present on each plate. In addition, some compounds of interest were further analyzed in a dose-response curve to determine IC50 values.
The broad-spectrum pan-caspase inhibitor Q-VD-OPh served as the positive control.
Lysates were prepared and APPΔC31 determined by ELISA. (B) CHO-7W cells were treated with 10 μM cerivastatin plus increasing doses of caspase and MEK inhibitors for 24 h. Lysates were prepared and APPΔC31 determined by AlphaLISA. Click here for additional data file.

[3] = In vivo pharmacokinetic analysis of spiperone; set-up: species or system mice (C57B6)
Description: As PAMPA is merely a predictive analysis of brain permeability, a pharmacokinetic (PK) study with spiperone was performed. […] Another 5 mice were injected intraperitoneally (IP) at the same dose. One mouse was euthanized from each dosing route group at 1, 2, 4, 6, and 8 h. This is done by ketamine/xylazine over- anesthesia followed by blood collection for plasma isolation by cardiac puncture, and transcardial perfusion of tissue with saline to remove residual blood from the brain. Both plasma and brain tissue were sent to Integrated Analytical Solutions (IAS, Berkeley, CA, USA) for compound level analysis using an LC-MS-MS method.

CHO-7W cells [4] = settings: with 10 μM cerivastatin
sAPPα in CHO-7W cultures = assay: sAPPα ELISA in cell media; type: cell-based, Chinese hamster; settings: QVD, Sp, 3′F-Sp at 10, 30, and 30 mM, respectively (so in the source), with 10 μM cerivastatin, 24 h, vs CS alone, n = 2
Description: (§1) In an additional study (Supplementary Figure S5A), measurement of the α secretase fragment of full length (FL) APP – soluble APP alpha (sAPPα) – was performed using cell media by ELISA (IBL). Furthermore, in two studies (Supplementary Figures S5B,C), total protein levels in CHO-7W cell lysates were determined by Coomassie Plus protein assay (Pierce).
(§2) Supplementary file Data_Sheet_1.docx: FIGURE S5 Effect of lead compounds on protein concentration and sAPPα. […] (B) Total protein from lysates of CHO-7W cells treated with either 30 μM QVD or 10 μM Sp alone for 24 h was similar to the vehicle control (n = 1). (C) Total protein from CHO-7W lysates treated with 10 μM CS alone or in combination with QVD, Sp, or 3′F-Sp at the concentrations shown increased (n = 1). Statistical analysis was performed using one-way ANOVA and Dunnett post-test for comparison to the 10 μM CS control (^∗∗p < 0.001, ^∗∗∗p < 0.0001). Click here for additional data file.

CHO-7W cells [5] = assay: Total protein in CHO-7W cell lysates (Coomassie Plus); type: cell-based, Chinese hamster; settings: n = 1
Description: as §1, §2

[6] = PAMPA / immobilized artificial membrane (IAM.PC.DD2) chromatography; type: in vitro ADME; settings: from KIAM/MW^4 x 10^10, cut-off 0.85
Description: Immobilized artificial membrane (IAM) chromatography such as PAMPA (parallel artificial membrane permeability assay) is used to predict a compound’s passive diffusion through membranes and may predict blood-brain barrier (BBB) penetrance.
To minimize variability between PAMPA assays for different compounds, the well-characterized, reliable IAM.PC.DD2 Regis Technologies analytical columns were used. In these 10 cm × 4.6 mm columns, the phospholipid is bonded on 10 μm, 300 Å, spherical aminopropyl silica and end capped with C10 and C3 amides.
Columns were connected to an Agilent high performance liquid chromatography system. […] The mobile phase was a mixture of water and methanol and a gradient was used for the elution of the compounds. The detector was set at 250 and 280 nm. After a compound was eluted, the retention time and void volume times were obtained from the chromatogram.
The IAM capacity factor (KIAM) was calculated using the equation: KIAM=tr−t0/t0 ; where tr is the
retention time of a compounds and t0 is the void volume time of the column. […] To predict the likelihood a compound would be BBB penetrant, we used the correlation described by [Yoon et al. (2006)]:
• (I) If KIAM/MW^4x10^10 > 0.85 the BBB penetration is predicted to be high • (II) If KIAM/MW^4x10^10 < 0.85 the BBB penetration is predicted to be low

SMILES: Oc1ccc(-c2nc(-c3ccncc3)c(-c3ccc(F)cc3)[nH]2)cc1 [SB202190]
- APPΔC31 Inh. (mean %) ([1]; 10 μM cerivastatin): 58%
- IC50 ([1]; CHO-7W): > 10 µM

SMILES: Cn1cc(C2=C(c3ccc(Cl)cc3Cl)C(=O)NC2=O)c2ccccc21 [SB216763]
- APPΔC31 Inh. (mean %) ([1]; 10 μM cerivastatin): 54%
- IC50 ([1]; CHO-7W): > 10 µM

SMILES: N#C/C(=C(/N)Sc1ccc(N)cc1)c1ccccc1C(F)(F)F [SL327]
- inhibition of cerivastatin-induced APPΔC31 (in words) ([2]; 10 μM cerivastatin, AlphaLISA): ineffective

SMILES: O=C(CCCN1CCC2(CC1)C(=O)NCN2c1ccccc1)c1ccc(F)cc1 [Spiperone]
- Kp ([3]; male, C57B6, brain and plasma, other: subcutaneous and intraperitoneal (both routes), 0.25 mg/mouse, SQ and IP routes, read-out: brain:plasma ratio): ~0.5
- Cmax ([3]; male, C57B6, brain, mouse, intraperitoneal (IP), 10 mg/kg, n = 1 per time point, read-out: peak brain level (Cmax)): ~205 ng/g
- time of peak brain level ([3]; mouse, IP injection at 10 mg/kg): 1 h
- time of peak brain level ([3]; mouse, both the subcutaneous and intraperitoneal routes): 1 h
- peak brain level ([3]; mouse, subcutaneous, 50 μL of 5 mg/mL in DMSO, n = 1 per time point): ~70 ng/g
- cell survival rescue (in words) (CHO-7W cells [4]; at 30 μM, among hits from HTS): greatest cell survival rescue effects
- effect on sAPPα (in words) (sAPPα in CHO-7W cultures): increased sAPPα
- effect on protein concentration in lysates, compound alone (in words) (CHO-7W cells [5]; QVD alone at 30 μM, spiperone alone at 10 μM, 24 h, vs vehicle): did not lower protein concentration
- effect on total protein concentration with cerivastatin (in words) (CHO-7W cells [5]; QVD, spiperone, 3′fluorobenzylspiperone at 30, 10, and 10 μM, respectively, with 10 μM cerivastatin): increased total protein concentration
- % Min (APPΔC31 dose-response) ([2]; AlphaLISA dose-response (Figure 5C), cerivastatin-stimulated): 23%
- BBB Penetration Prediction [6]: high (If KIAM/MW^4x10^10 > 0.85 the BBB penetration is predicted to be high)

SMILES: CC/C(=C(\c1ccccc1)c1ccc(OCCN(C)C)cc1)c1ccccc1 [Tamoxifen]
- APPΔC31 Inh. (mean %) ([1]; 10 μM cerivastatin): 56%

SMILES: C/C=C(/C)C(=O)O[C@H]1C(C)=C2[C@H]([C@@H]1OC(=O)CCCCCCC)[C@@](C)(OC(C)=O)C[C@H](OC(=O)CCC)[C@@]1(O)[C@H]2OC(=O)[C@@]1(C)O [Thapsigargin]
- APPΔC31 Inh. (mean %) ([1]; 10 μM cerivastatin): 97%
- inhibition of APPΔC31 production (in words) ([1]; CHO-7W, 10 μM cerivastatin, thapsigargin 0.033-0.3 μM, 2,5-Di-tert-butylhydroquinone 1 and 10 μM): remarkably potent inhibitor
- IC50 ([1]; CHO-7W): 0.077 µM
- cell survival rescue (in words) (CHO-7W cells [4]; low concentrations (thapsigargin 0.033-0.3 μM, 2,5-Di-tert-butylhydroquinone 1 and 10 μM)): highest cell survival

SMILES: CS/C(N)=C(C#N)/C(C#N)=C(\N)SC [U0124]
- inhibition of cerivastatin-induced APPΔC31 (in words) ([2]; 10 μM cerivastatin, AlphaLISA): ineffective

SMILES: N#CC(=C(/N)Sc1ccccc1N)/C(C#N)=C(/N)Sc1ccccc1N [U0126]
- reduction of APPΔC31 ([2]; from 10 to 50 μM, 10 μM cerivastatin, AlphaLISA): ~25%
